“Also recorded” adds a separate entry of the source.
Key:
[1] = system: HCE (human ciliary epithelial) cell line, NPE cells; experiment: Cell volume (shrinkage) of NPE cells in isosmotic solution, Coulter Counter, 5 μM gramicidin; format: cell-based; details: for effect of A3 antagonist on adenosine-stimulated isotonic shrinkage: 300 nM MRS-1097, 100 nM MRS-1191, 100 nM MRS-1523, 10 μM adenosine; for effect of A3 antagonist on IB-MECA-stimulated isotonic shrinkage: 2 min preincubation, MRS-1097 300 nM, MRS-1191 100 nM, 100 nM IB-MECA
Summary of the method: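 HCE-derived NPE cells suspended in isosmotic bicarbonate/HEPES Ringer's (pH 7.4, 298-305 mOsm), with 5 μM gramicidin D in all solutions to remove K^+ channel contribution. Volume measured by Coulter Counter as peak of distribution, normalized to first time point; shrinkage fit to monoexponential by nonlinear least squares for v∞ and τ. Vehicle-matched controls.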

A1 and A2A receptors = experiment: Estimated occupancy of A1 and A2A receptors at the concentrations used; details: at the concentrations used (300 nM MRS 1097, 100 nM MRS 1191, 100 nM MRS 1523)
human A2 receptors = details: read-out: Ki for binding to human A2 receptors; cited from earlier work
A1 receptors = biological target: T1, A1 receptors (Rattus norvegicus, UniProt P25099); experiment: Radioligand binding, [3H]R-PIA, rat cerebral cortex membranes
T1 construct: A1 receptors from rat cerebral cortex membranes; from tissue; host or cells: rat cerebral cortex membranes
T1 sequence (P25099 1-326): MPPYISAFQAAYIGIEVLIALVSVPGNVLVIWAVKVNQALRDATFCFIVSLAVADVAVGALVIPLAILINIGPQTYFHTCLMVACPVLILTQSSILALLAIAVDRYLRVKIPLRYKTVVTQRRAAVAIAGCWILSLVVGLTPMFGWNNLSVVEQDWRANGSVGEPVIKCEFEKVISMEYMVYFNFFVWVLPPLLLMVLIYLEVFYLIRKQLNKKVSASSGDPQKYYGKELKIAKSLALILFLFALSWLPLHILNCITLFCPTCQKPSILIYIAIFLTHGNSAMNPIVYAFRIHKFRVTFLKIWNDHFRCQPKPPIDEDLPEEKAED
Description: (§1) Radioligand binding studies. Binding of [^3H]R-N^6-phenylisopropyladenosine ([^3H]R-PIA) to A1 receptors from rat cerebral cortex membranes and of [^3H]-2-[4-[(2-carboxyethyl)phenyl]ethylamino]-5′-N-ethylcarbamoyladenosine ([^3H]CGS 21680) to A2A receptors from rat striatal membranes was performed as described previously (Schwabe et al., Naunyn Schmiedeberg Arch. Pharmacol. 313:179-187, 1980; Jarvis et al., J. Pharmacol. Exp. Ther. 251:888-893, 1989) Adenosine deaminase (3 units/mL) was present during the preparation of the brain membranes, in a pre-incubation of 30 min at 30° C., and during the incubation with the radioligands. Nonspecific binding was determined in the presence of 10 μM (A1 receptors) or 20 μM (A2A receptors)2-chloroadenosine.
(§2) All non-radioactive compounds were initially dissolved in DMSO, and diluted with buffer to the final concentration, where the amount of DMSO never exceeded 1%. Incubations were terminated by rapid filtration over Whatman GF/B filters, using a Brandell cell harvester (Brandell, Gaithersburg, MD). The tubes were rinsed three times with 3 mL buffer each.
(§3) At least five different concentrations of competitor, spanning 3 orders of magnitude adjusted appropriately for the IC50 of each compound, were used.

A2A receptors = biological target: T2, A2A receptors (Rattus norvegicus, UniProt P30543); experiment: Radioligand binding, [3H]CGS 21680, rat striatal membranes; details: at 100 μM
T2 construct: to A2A receptors from rat striatal membranes; from tissue; host or cells: rat striatal membranes
Description: as §1, §2, §3

[2] = Oxidation of 1-methyl-1,4-dihydropyridine in rat brain homogenate; format: in vitro ADME; details: rat brain homogenate supernatant, pH 7.4, 37 C, read-out: t½ of oxidation to pyridinium salt 11
Description: The rat brain homogenate was prepared by the following method. One rat ([…]) was killed and the brain (weighing 2.26 g) was removed, and homogenized in 12 mL PBS (Biofluids, Inc., 1×pH 7.4). The homogenate was centrifuged at 12,000×rpm, and the supernatant was used. 5 mg of 24 dissolved in 0.2 mL of DMSO was mixed with 10 mL of brain homogenate (initial concentration of 1.27 mM), which was previously equilibrated to 37° C. in a water bath incubator, and shaking was continued at that temperature. Aliquots of 500 μL were withdrawn at 2, 4, 8, 16, 32, 64, 128, 256, 768 min (2×each) from the test medium, added immediately to 3 mL of ice-cold ethyl ether, shaken vigorously, and placed in a freezer. When all samples had been collected, and the ether layer of each sample was separated. After evaporation of the ether, each residue was dissolved in 200 μL methanol, filtered through Whatman 1 filter paper and analyzed by HPLC.
Pyridinium salt 11 could be generated through oxidation of the corresponding reduced precursor, 1-methyl-2,4-diethyl-3-(ethylsulfanylcarbonyl)-5-ethyloxycarbonyl-6-phenyl-1,4-dihydropyridine, 24. The conversion of 24 to 11 by chemical means (iodine in nitromethane) and during incubation at 37 C with rat brain membranes, to simulate in vivo conditions, was studied. The chemical conversion occurred readily, and the time course of the biochemical oxidation was recorded . […]

human A3 receptor = biological target: T3, human A3 receptor (Homo sapiens, UniProt P0DMS8); experiment: Radioligand binding, [125I]AB-MECA, HEK-293 cell membranes; design: host or cells: HEK-293; details: read-out: Ki(hA3)
T3 sequence (P0DMS8 1-318): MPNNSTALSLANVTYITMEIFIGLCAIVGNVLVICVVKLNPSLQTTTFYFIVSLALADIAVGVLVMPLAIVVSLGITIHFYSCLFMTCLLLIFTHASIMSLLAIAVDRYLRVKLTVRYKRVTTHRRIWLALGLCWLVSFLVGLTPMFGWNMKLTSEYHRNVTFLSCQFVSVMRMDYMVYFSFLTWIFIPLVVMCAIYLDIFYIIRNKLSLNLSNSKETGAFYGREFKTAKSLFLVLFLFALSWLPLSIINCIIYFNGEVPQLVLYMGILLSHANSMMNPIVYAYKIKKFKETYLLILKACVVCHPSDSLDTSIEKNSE
Description: Natl. Acad. Sci. […] Natl. Acad. Sci. U.S.A. 89:7432-7436, 1992) was performed as described at 4° C. (Olah et al., Mol. Pharmacol. 45:978-982, 1994). The assay medium consisted of a buffer containing 10 mM Mg^2+, 50 mM Tris, 3 units/mL adenosine deaminase, and 1 mM EDTA, at pH 8.0 (4° C.). […] Incubations were terminated by rapid filtration over Whatman GF/B filters, using a Brandell cell harvester (Brandell, Gaithersburg, MD). The tubes were rinsed three times with 3 mL buffer each. At least five different concentrations of competitor, spanning 3 orders of magnitude adjusted appropriately for the IC50 of each compound, were used. IC50 values, calculated with the nonlinear regression method implemented in the InPlot program (Graph-PAD, San Diego, Calif.), were converted to apparent Ki values using the Cheng-Prusoff equation (Cheng et al., Biochem.

T2 sequence (P30543 whole entry): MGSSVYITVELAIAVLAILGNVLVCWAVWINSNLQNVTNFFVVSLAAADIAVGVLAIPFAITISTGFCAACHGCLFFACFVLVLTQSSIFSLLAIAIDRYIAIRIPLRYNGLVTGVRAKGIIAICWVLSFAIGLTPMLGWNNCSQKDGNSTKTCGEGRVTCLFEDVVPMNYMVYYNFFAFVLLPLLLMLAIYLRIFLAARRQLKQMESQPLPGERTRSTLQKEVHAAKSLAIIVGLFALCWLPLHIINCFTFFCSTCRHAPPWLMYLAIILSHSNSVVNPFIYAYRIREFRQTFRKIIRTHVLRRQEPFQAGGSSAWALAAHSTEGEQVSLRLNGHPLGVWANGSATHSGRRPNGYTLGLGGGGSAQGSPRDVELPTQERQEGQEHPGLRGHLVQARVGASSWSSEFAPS

## 3-ethyl 5-benzyl-2-methyl-6-phenyl-4-styryl-1,4-(±)-dihydropyridine-3,5-dicarboxylate [MRS-1097]
[1]
  effect of A3 antagonist on adenosine-stimulated isotonic shrinkage: prevented the characteristic shrinkage
  effect of A3 antagonist on IB-MECA-stimulated isotonic shrinkage: prevented shrinkage
[1]; listed as MRS 1097
  effect of A3 antagonist on adenosine-stimulated isotonic shrinkage: blocked the shrinkage
  effect of A3 antagonist on IB-MECA-stimulated isotonic shrinkage: blocked the isoomotic shrinkage; also recorded: prevented the subsequent response; also recorded: prevent the shrinkage
A1 and A2A receptors
  share of the A1 and A2A receptors that could have been occupied: < 20%
Human A2 receptors
  Ki: 4.77 µM

## CCOC(=O)C1=C(c2ccccc2)N(C)C(CC)=C(C(=O)SCC)C1CC (stereo not shown) [Compound 24, 1-Methyl-2,4-diethyl-3-(ethylsulfanylcarbonyl)5-ethyloxycarbonyl-6-phenyl-1,4-dihydropyridine]
A1 receptors
  Ki: 28.4 ± 2.5 µM
A2A receptors
  percent displacement of specific radioligand binding at rat A2A receptors: 48±7%
[2]
  half-life at 1.27 mM: ~47 min
Human A3 receptor
  Ki: 0.379 ± 0.122 µM

Source: patent US6528516B1, “Methods for reducing intraocular pressure using A3 adenosine receptor antagonists” (Trustees of the University of Pennsylvania, The Center for …, priority 1998, dated 2003)
